Our source for the IC50 values is patent US20260042755A1, “GPR6 INVERSE AGONISTS” (MapLight Therapeutics, Inc., priority 2022, published 2026).

As usually defined, the IC50 is the midpoint of a concentration-inhibition curve. A low value points to greater potency.

Assay [1] deals with T1, GPR6 (Homo sapiens, UniProt P46095).
T1 construct: expressed in transfected cells; host or cells: CHO cells
In words: GPR6 antagonist functional cAMP assay (LANCE Ultra cAMP TR-FRET, CHO cells stably expressing GPR6). The format is cell-based. Here is the method:
(§1) Example 56. GPR6 and GPR3 Antagonist Functional cAMP Assay
(§2) CHO cells stably expressing GPR6 or GPR3 receptors were dissociated from cell culture flasks and incubated for 2 h at 37° C. in a 10 cm dish in a humidified incubator. Cells were dissociated, counted to have 1e6 cells/mL (4.5e6 cells needed/384-well plate), washed once in starved media, than in D-PBS and finally suspended in assay buffer (Krebs-Ringer Bicarbonate Buffer with 1800 mg/L glucose, without calcium chloride and sodium bicarbonate (Sigma) in the presence of 0.1% BSA and 150 μM of Ro 20-1724 Phosphodiesterase inhibitor).
(§3) Cells in suspension from above were plated in 384-well white Optiplate (PerkinElmer) at 10,000 cells/well/10 μl, briefly centrifuged prior direct addition of compounds ([…]) in 10 mM DMSO using a Tecan D300e Digital Dispenser, final DMSO in each well was normalized to 0.1%. Cells were incubated in the presence of compounds for 45 min at 37° C. in a humidified incubator.
(§4) To measure cAMP levels, LANCE® Ultra cAMP assay (Perkin Elmer), a homogeneous time-resolved fluorescence resonance energy transfer (TR-FRET) immunoassay was used following manufacturer's recommendations. Plates were shaken for 1 h at room temperature before reading on a Tecan InfiniteF200Pro multi-mode plate reader using standard FRET settings (Excitation 340 nm, Emission at 615 nm). FRET values were reported as readings obtained at 665 nm. Data were normalized to DMSO (0.1%) and reference compounds (100%) and fit to a 4-parameter logistical fit to generate antagonist IC50s.
For orientation: Changes in cAMP serve as a functional read-out for many G protein-coupled receptors.

The target in assay [2] is T2, GPR3 (Homo sapiens, UniProt P46089).
T2 construct: expressed in transfected cells; host or cells: CHO cells
T2 sequence (P46089 whole entry, species assumed): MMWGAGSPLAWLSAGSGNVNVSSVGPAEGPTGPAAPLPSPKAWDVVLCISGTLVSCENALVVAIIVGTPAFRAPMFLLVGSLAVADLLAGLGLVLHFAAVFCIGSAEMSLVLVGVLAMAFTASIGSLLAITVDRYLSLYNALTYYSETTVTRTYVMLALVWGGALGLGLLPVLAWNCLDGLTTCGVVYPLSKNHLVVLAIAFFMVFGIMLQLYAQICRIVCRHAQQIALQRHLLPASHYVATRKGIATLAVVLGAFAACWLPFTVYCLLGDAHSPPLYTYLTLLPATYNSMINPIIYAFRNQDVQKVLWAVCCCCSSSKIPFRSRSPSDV
In words: GPR3 antagonist functional cAMP assay (LANCE Ultra cAMP TR-FRET, CHO cells stably expressing GPR3). The format is cell-based. As for the experimental part: as §1, §2, §3, §4

The mark [3] stands for this setting: CHO cells stably expressing GPR6, cAMP assay (Example 24).
[4] abbreviates: CHO cells stably expressing GPR3, cAMP assay (Example 24).
Setting [5] is: CHO cells stably expressing GPR6, cAMP assay.
The mark [6] stands for this setting: CHO cells stably expressing GPR3, cAMP assay.

The structures appear in SMILES notation. Where only a bound is given, the exact number is not on record here.

T1 sequence (P46095 whole entry): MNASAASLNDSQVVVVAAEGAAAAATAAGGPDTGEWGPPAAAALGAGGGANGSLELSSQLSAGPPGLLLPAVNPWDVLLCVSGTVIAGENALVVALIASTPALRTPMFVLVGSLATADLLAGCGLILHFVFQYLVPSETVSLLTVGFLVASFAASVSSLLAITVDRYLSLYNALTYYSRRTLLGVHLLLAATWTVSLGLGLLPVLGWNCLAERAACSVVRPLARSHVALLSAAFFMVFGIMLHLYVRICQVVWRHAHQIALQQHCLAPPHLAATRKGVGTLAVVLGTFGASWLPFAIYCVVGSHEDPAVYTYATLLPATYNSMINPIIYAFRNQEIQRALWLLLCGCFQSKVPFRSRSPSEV

Take `CCn1cc(-c2nc3c(nc2N2CCC(Oc4cc(Cl)ccc4Cl)CC2)CCN(C[C@@H](O)CO)C3)cn1` (single isomer, unassigned) [Compound 408]: the IC50 was 100 to 1000 nM in assay [1] (setting [3]) and 1000 to 30000 nM in assay [2] (setting [4]).
The matching figures for `Cn1cc(-c2nc3cnc(C[C@@H](O)CO)cc3nc2N2CCC(Oc3ccc(F)cc3F)CC2)cn1` (single isomer, unassigned) [Compound 415]: 100 to 1000 nM and 1000 to 30000 nM.
The matching figures for `Cn1cc(-c2nc3cnc(C[C@H](O)CO)cc3nc2N2CCC(Oc3ccc(F)cc3F)CC2)cn1` (single isomer, unassigned) [Compound 416]: 100 to 1000 nM and 1000 to 30000 nM.
For `CC(=O)N1Cc2nc(-c3cnn(C)c3)c(N3CCC(Oc4ccc(F)cc4F)CC3)nc2CC1C` (single isomer, unassigned) [Compound 445], in that order: 100 to 1000 nM and 1000 to 30000 nM.
In the case of `CC(=O)N1Cc2nc(-c3cnn(C)c3)c(N3CCC(Oc4ccc(F)cc4F)CC3)nc2CC1C` (single isomer, unassigned) [Compound 446], the values for the IC50 in assay [1] (setting [3]) and in assay [2] (setting [4]) were 100 to 1000 nM and 1000 to 30000 nM, respectively.
The matching figures for `C[C@H](O)[C@H](O)c1cc2nc(N3CCC(Oc4ccc(F)cc4F)CC3)c(-c3cnn(C)c3)nc2cn1` (single isomer, unassigned) [Compound 471]: 100 to 1000 nM and 1000 to 30000 nM.
As to `C[C@@H](O)[C@@H](O)c1cc2nc(N3CCC(Oc4ccc(F)cc4F)CC3)c(-c3cnn(C)c3)nc2cn1` (single isomer, unassigned) [Compound 472], the IC50 in assay [1] (setting [3]) lay within 100 to 1000 nM; in assay [2] (setting [4]), 1000 to 30000 nM.
As for `CC(C)(O)[C@H](O)c1cc2nc(N3CCC(Oc4ccc(F)cc4F)CC3)c(-c3cnn(C(F)F)c3)nc2cn1` (single isomer, unassigned) [Compound 554], the results for the IC50 in assay [1] (setting [5]) and in assay [2] (setting [6]) were less than 100 nM and 1000 to 30000 nM, respectively.
The matching figures for `CC(C)(O)[C@@H](O)c1cc2nc(N3CCC(Oc4ccc(F)cc4F)CC3)c(-c3cnn(C(F)F)c3)nc2cn1` (single isomer, unassigned) [Compound 555]: 100 to 1000 nM and 1000 to 30000 nM.
For `Cn1cc(-c2nc3cc(C(O)C(C)(C)O)ncc3nc2N2CCC(Oc3ccc(F)cc3F)CC2)cn1` (single isomer, unassigned) [Compound 561], in that order: less than 100 nM and 100 to 1000 nM.
The matching figures for `Cn1cc(-c2nc3cc(C(O)C(C)(C)O)ncc3nc2N2CCC(Oc3ccc(F)cc3F)CC2)cn1` (single isomer, unassigned) [Compound 562]: less than 100 nM and 100 to 1000 nM.
For `Cn1cc(-c2nc3cnc([C@@](C)(O)CO)cc3nc2N2CCC(Oc3ccc(F)cc3F)CC2)cn1` (single isomer, unassigned) [Compound 564], the figures for the IC50 in assay [1] (setting [5]) and in assay [2] (setting [6]) were 100 to 1000 nM and 1000 to 30000 nM, respectively.
For `Cn1cc(-c2nc3cnc([C@](C)(O)CO)cc3nc2N2CCC(Oc3ccc(F)cc3F)CC2)cn1` (single isomer, unassigned) [Compound 565], in that order: 1000 to 30000 nM and 1000 to 30000 nM.
The matching figures for `CCn1cc(-c2nc3cnc([C@@H](O)C(C)(C)O)cc3nc2N2CCC(Oc3ccc(F)cc3F)CC2)cn1` (single isomer, unassigned) [Compound 570]: less than 100 nM and 1000 to 30000 nM.
For `CCn1cc(-c2nc3cnc([C@H](O)C(C)(C)O)cc3nc2N2CCC(Oc3ccc(F)cc3F)CC2)cn1` (single isomer, unassigned) [Compound 571], in that order: less than 100 nM and 1000 to 30000 nM.
As for `CC(C)(O)[C@H](O)c1cc2nc(N3CCC(Oc4ccc(F)cc4F)CC3)c(-c3cnn(C4CC4)c3)nc2cn1` (single isomer, unassigned) [Compound 572], the IC50 is 100 to 1000 nM in assay [1] (setting [5]) and 1000 to 30000 nM in assay [2] (setting [6]).
In the case of `CC(C)(O)[C@@H](O)c1cc2nc(N3CCC(Oc4ccc(F)cc4F)CC3)c(-c3cnn(C4CC4)c3)nc2cn1` (single isomer, unassigned) [Compound 573], the IC50 in assay [1] (setting [5]) was 100 to 1000 nM; in assay [2] (setting [6]), 1000 to 30000 nM.
The matching figures for `CCn1cc(-c2nc3cnc([C@@H](O)C(C)(C)O)cc3nc2N2CCN(Cc3ccc(F)cc3F)CC2)cn1` (single isomer, unassigned) [Compound 574]: 100 to 1000 nM and 1000 to 30000 nM.
For `CC(C)(O)[C@H](O)c1cc2nc(N3CCN(Cc4ccc(F)cc4F)CC3)c(-c3cnn(C4CC4)c3)nc2cn1` (single isomer, unassigned) [Compound 576], in that order: 100 to 1000 nM and 1000 to 30000 nM.
The matching figures for `Cn1cc(-c2nc3cnc([C@@H](O)C(C)(C)O)cc3nc2N2CCN(Cc3ccc(F)cc3F)CC2)cn1` (single isomer, unassigned) [Compound 578]: 100 to 1000 nM and 1000 to 30000 nM.
For `Cn1cc(-c2nc3cnc([C@H](O)C(C)(C)O)cc3nc2N2CCN(Cc3ccc(F)cc3F)CC2)cn1` (single isomer, unassigned) [Compound 579], the results for the IC50 in assay [1] (setting [5]) and in assay [2] (setting [6]) were less than 100 nM and 100 to 1000 nM, respectively.
The matching figures for `CC(C)(O)C(O)c1cc2nc(-c3cnn(C(F)F)c3)c(N3CCC(Oc4ccc(F)cc4F)CC3)nc2cn1` (single isomer, unassigned) [Compound 583]: less than 100 nM and 1000 to 30000 nM.
For `CC(C)(O)C(O)c1cc2nc(-c3cnn(C(F)F)c3)c(N3CCC(Oc4ccc(F)cc4F)CC3)nc2cn1` (single isomer, unassigned) [Compound 584], in that order: less than 100 nM and 1000 to 30000 nM.
The matching figures for `CC(C)(O)C(O)c1cc2nc(-c3cnn(C(F)F)c3)c(N3CCN(Cc4ccc(F)cc4F)CC3)nc2cn1` (single isomer, unassigned) [Compound 585]: less than 100 nM and 100 to 1000 nM.
Consider `CC(C)(O)C(O)c1cc2nc(-c3cnn(C(F)F)c3)c(N3CCN(Cc4ccc(F)cc4F)CC3)nc2cn1` (single isomer, unassigned) [Compound 586], for which the IC50 is less than 100 nM in assay [1] (setting [5]) and 100 to 1000 nM in assay [2] (setting [6]).
The matching figures for `CCn1cc(-c2nc3cc(C(O)C(C)(C)O)ncc3nc2N2CCC(Oc3ccc(F)cc3F)CC2)cn1` (single isomer, unassigned) [Compound 588]: less than 100 nM and 100 to 1000 nM.
Consider `CCn1cc(-c2nc3cc(C(O)C(C)(C)O)ncc3nc2N2CCC(Oc3ccc(F)cc3F)CC2)cn1` (single isomer, unassigned) [Compound 589], for which the IC50 is less than 100 nM in assay [1] (setting [5]) and 100 to 1000 nM in assay [2] (setting [6]).
The matching figures for `CC(C)(O)C(O)c1cc2nc(-c3cnn(C4CC4)c3)c(N3CCC(Oc4ccc(F)cc4F)CC3)nc2cn1` (single isomer, unassigned) [Compound 590]: less than 100 nM and 100 to 1000 nM.
With `CC(C)(O)C(O)c1cc2nc(-c3cnn(C4CC4)c3)c(N3CCC(Oc4ccc(F)cc4F)CC3)nc2cn1` (single isomer, unassigned) [Compound 591], the IC50 in assay [1] (setting [5]) is less than 100 nM; in assay [2] (setting [6]) it was 1000 to 30000 nM.
`CC(C)(O)C(O)c1cc2nc(-c3cnn(CF)c3)c(N3CCC(Oc4ccc(F)cc4F)CC3)nc2cn1` (single isomer, unassigned) [Compound 592]: the 50% inhibitory concentration (IC50) in assay [1] (setting [5]) is less than 100 nM; in assay [2] (setting [6]), 100 to 1000 nM.
The matching figures for `CC(C)(O)C(O)c1cc2nc(-c3cnn(CF)c3)c(N3CCC(Oc4ccc(F)cc4F)CC3)nc2cn1` (single isomer, unassigned) [Compound 593]: less than 100 nM and 100 to 1000 nM.
As for `CC(C)(O)[C@H](O)c1cc2nc(N3CCC(Oc4ccc(F)cc4F)CC3)c(-c3cnn(CF)c3)nc2cn1` (single isomer, unassigned) [Compound 596], the values for the IC50 in assay [1] (setting [5]) and in assay [2] (setting [6]) were 100 to 1000 nM and 1000 to 30000 nM, respectively.
The matching figures for `CC(C)(O)[C@@H](O)c1cc2nc(N3CCC(Oc4ccc(F)cc4F)CC3)c(-c3cnn(CF)c3)nc2cn1` (single isomer, unassigned) [Compound 597]: 100 to 1000 nM and 1000 to 30000 nM.
Regarding `CC(C)(O)[C@H](O)c1cc2nc(N3CCN(Cc4ccc(F)cc4F)CC3)c(-c3cnn(CF)c3)nc2cn1` (single isomer, unassigned) [Compound 598], the concentration for half-maximal inhibition (IC50) in assay [1] (setting [5]) lay in the range of 100 to 1000 nM; in assay [2] (setting [6]) it was 1000 to 30000 nM.
The matching figures for `CC(C)(O)[C@@H](O)c1cc2nc(N3CCN(Cc4ccc(F)cc4F)CC3)c(-c3cnn(CF)c3)nc2cn1` (single isomer, unassigned) [Compound 599]: 100 to 1000 nM and 1000 to 30000 nM.
The matching figures for `CC(C)(O)C(O)c1cc2nc(-c3cnn(C4CC4)c3)c(N3CCN(Cc4ccc(F)cc4F)CC3)nc2cn1` (single isomer, unassigned) [Compound 600]: less than 100 nM and 100 to 1000 nM.
Consider `CC(C)(O)C(O)c1cc2nc(-c3cnn(C4CC4)c3)c(N3CCN(Cc4ccc(F)cc4F)CC3)nc2cn1` (single isomer, unassigned) [Compound 601], for which the IC50 in assay [1] (setting [5]) was 100 to 1000 nM; in assay [2] (setting [6]) it was 1000 to 30000 nM.
